In PMC7160233, “Peptides With Triplet-Tryptophan-Pivot Promoted Pathogenic Bacteria Membrane Defects” (Frontiers in Microbiology, 2020):
Where a SMILES comes first, the peptide text is derived from it.

Tests used:
P. aeruginosa 27853 = format: cell-based, Pseudomonas aeruginosa; conditions: 27853, 24 h
Description: (§1) The antibacterial activity of the peptides was measured using a method adopted from the Clinical Laboratory Standards Institute (CLSI), with modifications. 50 μL bacterial cells solution with 1000-fold of OD600 = 0.4 was mixed with 50 μL of each peptide of various concentration ranged from 2 to 64 μM dissolved in BSA (0.2% with 0.01% acetic acid) and incubated in sterile 96-well plates at 37°C for 24 h. The MICs were calculated as the lowest concentration of peptide with no microbial growth being observed. Broth with microbial cells and uninoculated broth were used as positive control and negative control, respectively. The tests were performed at least three times.

S. epidermidis 12228 = format: cell-based, Staphylococcus epidermidis; conditions: 12228, 24 h
Description: as §1

E. coli 25922 = format: cell-based, Escherichia coli; conditions: 25922, 24 h
Description: as §1

MRSA* 43300 = format: cell-based, methicillin-resistant Staphylococcus aureus; conditions: * 43300, 24 h
Description: as §1

pathogens = assay: Geometric mean of MICs against pathogens; format: cell-based; conditions: six pathogenic strains of Table 2
Description: as §1

L. rhamnosus 1.0911 = format: cell-based, Lactobacillus rhamnosus; conditions: 24 h
Description: as §1

L. rhamnosus 7469 = format: cell-based, Lactobacillus rhamnosus; conditions: 24 h
Description: as §1

L. rhamnosus 1.0386 = format: cell-based, Lactobacillus rhamnosus; conditions: 24 h
Description: as §1

L. rhamnosus 1.0385 = format: cell-based, Lactobacillus rhamnosus; conditions: 24 h
Description: as §1

L. rhamnosus 1.9025 = format: cell-based, Lactobacillus rhamnosus; conditions: 24 h
Description: as §1

E. coli UB 1005 = assay: MIC measurement (modified CLSI broth microdilution); format: cell-based, Escherichia coli; conditions: peptide 2-64 μM in 0.2% BSA with 0.01% acetic acid, 37°C, 24 h, at least three times
Description: as §1

S. aureus 29213 = format: cell-based, Staphylococcus aureus; conditions: 29213, 24 h
Description: as §1

Lactobacillus = format: cell-based; conditions: probiotic strains of Table 2
Description: as §1

L. plantarum 8014 = format: cell-based; conditions: 24 h
Description: as §1

rats = conditions: ref Richard et al., 2009, Fernstrom, 2012; cited from earlier work
Source text: (§2) Also, the indole ring of tryptophan prefers to interact with a […], and the indole NH being close to a lipid carbonyl ester leads W-containing peptides to be powerful and safe promising antibiotic candidates with different beneficial effects ([Dixon et al., 2003]; ...

humans = conditions: corresponding to the rat value, ref Richard et al., 2009, Fernstrom, 2012; cited from earlier work
Source text: as §2

E. coli ATCC 25922 [1] = assay: Mouse infection model, bacterial load; format: in vivo; conditions: ICR mice, i.p. E. coli 1 × 10^8 CFU/ml, 5 mg/kg i.p. 1 h later, 6 h, P < 0.05
Description: Female Institute for Cancer Research (ICR) mice (SPF, 20–25 g) were purchased from WeiTonglihua, Co., Ltd. (Beijing, China). Mice were fed and acclimatized as described ([Chou et al., 2019]). E. coli ATCC 25922 was adopted as the pathogenic bacterium for the infection model in this study. In this mouse model, the antimicrobial activity of S7 was determined by colony counting of blood and various organs. Briefly, the mice were divided into four groups (six groups for anti-inflammatory assay) and received intraperitoneal injections of 100 μl E. coli (1 × 10^8 CFU/ml) cells in 0.9% NaCl or only 100 μl 0.9% NaCl as control. 1 h later, 100 μl S7 (5 mg/kg), 100 μl 0.9% NaCl, 100 μl gentamicin (5 mg/kg) or 100 μl 0.9% NaCl, was intraperitoneally injected to the treated or control groups, respectively. And the mice were sacrificed via excessive anesthesia after 6 h post-challenge. The anti-inflammatory effect of S7 was measured by testing the levels of TNF-α, IL-6, and IL-1β in serum using a TNF-α enzyme-linked immunosorbent assay (ELISA) kit, an IL-6 ELISA kit and an IL-1β ELISA kit according to the manufacturer’s instructions (Shanghai Jin Ma Laboratory Equipment, Co., Ltd.).

E. coli ATCC 25922 [2] = assay: Drug resistance experiment (sequential passaging); format: cell-based, Escherichia coli; conditions: E. coli 25922, passaged at sub-MIC for 30 days
Description: Resistance development of E. coli ATCC 25922 against antibiotics was investigated using a sequential passaging method. Briefly, in the first generation, the MIC value was determined as described previously. After a 24 h incubation, bacterial cells growing in a well with a half-MIC level were harvested and diluted to 0.05 at OD600, followed by a 1:10 dilution in fresh MHB. The inoculum was subjected to subsequent passage MIC testing, and the process was repeated for 30 days. The fold change in MIC was plotted against the number of passages.

For N=C(N)NCCC[C@H](NC(=O)[C@H](CCCNC(=N)N)NC(=O)[C@H](Cc1c[nH]c2ccccc12)NC(=O)[C@H](CO)NC(=O)[C@H](Cc1c[nH]c2ccccc12)NC(=O)[C@H](Cc1c[nH]c2ccccc12)NC(=O)[C@H](Cc1c[nH]c2ccccc12)NC(=O)[C@H](CO)NC(=O)[C@H](Cc1c[nH]c2ccccc12)NC(=O)[C@H](CCCNC(=N)N)NC(=O)[C@@H](N)CCCNC(=N)N)C(N)=O [Peptide S7] (H-RRWSWWWSWRR-NH2), the “MIC P. aeruginosa 27853” value (P. aeruginosa 27853) was 4 μ M, the “MIC S. epidermidis 12228” value (S. epidermidis 12228) was 4 μ M and the “MIC E. coli 25922” value (E. coli 25922) was 4 μ M. The “MIC MRSA* 43300” value (MRSA* 43300) was 2 μ M, the “geometric mean (GM) of MICs against pathogens” value (pathogens) was 3.17 µM and the “MIC L. rhamnosus 1.0911” value (L. rhamnosus 1.0911) was over 64 μ M. The “MIC L. rhamnosus 7469” value (L. rhamnosus 7469) was over 64 μ M, the “MIC L. rhamnosus 1.0386” value (L. rhamnosus 1.0386) was over 64 μ M and the “MIC L. rhamnosus 1.0385” value (L. rhamnosus 1.0385) was over 64 μ M. The “MIC L. rhamnosus 1.9025” value (L. rhamnosus 1.9025) was over 64 μ M, the “MIC E. coli UB 1005” value (E. coli UB 1005) was 2 μ M and the “MIC S. aureus 29213” value (S. aureus 29213) was 4 μ M. For the same compound, the “MIC against Lactobacillus” value (Lactobacillus) was “more than 64 μM” and the “MIC L. plantarum 8014” value (L. plantarum 8014) was over 64 μ M.

For N[C@@H](Cc1c[nH]c2ccccc12)C(=O)O [Tryptophan (W), Tryptophan], the “median lethal dose (LD50)” value (rats) is given as 1600 mg/kg and the “median lethal dose (LD50), corresponding dose in humans” value (humans) is given as about 1400 mg/kg.

With CNC(C)C1CCC(N)C(OC2C(N)CC(N)C(OC3OCC(C)(O)C(NC)C3O)C2O)O1 (stereo not shown) [gentamicin] the “number of colonies in blood, kidney and liver versus E. coli group” value (E. coli ATCC 25922 [1]) was “significantly decreased” and the “resistance development (change in MIC on serial passaging)” value (E. coli ATCC 25922 [2]) was “induced rapid resistance acquisition”.

With CN(C)[C@@H]1C(O)=C(C(N)=O)C(=O)[C@@]2(O)C(O)=C3C(=O)c4c(O)cccc4[C@@](C)(O)[C@H]3C[C@@H]12 [tetracycline] the “resistance development (change in MIC on serial passaging)” value (E. coli ATCC 25922 [2]) was “induced rapid resistance acquisition”.
